Laboratory results: patent US20230075856A1, “CYCLIC SULFAMIDE COMPOUNDS FOR TREATMENT OF HBV” (Assembly Biosciences, Inc., priority 2018, published 2023)

These compounds were tested on HBV viral load production from HepAD38 cells (assay: Viral production from HepAD38 cells: viral load in supernatant by qPCR of the HBV core sequence). Conditions: 5 days incubation, qPCR of supernatant HBV DNA vs DMSO control, read-out: viral load lowering EC50 (Activity).
Format: cell-based
Summary of the method: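 Viral load was measured by qPCR of the HBV core region in supernatant, quantified against DNA standards and compared with DMSO wells. Cells (50,000/well, tetracycline withdrawn, 2% FBS) received compound from 10 μM final for 5 days; EC50 from four-parameter nonlinear regression.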
In the case of `CN1C(C(=O)Nc2ccc(F)c(Cl)c2)CC(C(=O)NC2CCN(c3ncccn3)CC2)NS1(=O)=O` (single isomer, unassigned) [Compound 855-ISOMER-B, N3-(3-chloro-4-fluoro-phenyl)-2-methyl-1,1-dioxo-N5-(1-pyrimidin-2-yl-4-piperidyl)-1,2,6-thiadiazinane-3,5-dicarboxamide], the EC50 is reported as 100 to 10000 nM. With `CC(C)OC1CCC(NC(=O)C2CC(C(=O)Nc3ccc(F)c(Cl)c3)N(C)S(=O)(=O)N2)CC1` (single isomer, unassigned) [Compound 862-ISOMER-B, N3-(3-chloro-4-fluoro-phenyl)-N5-(4-isopropoxycyclohexyl)-2-methyl-1,1-dioxo-1,2,6-thiadiazinane-3,5-dicarboxamide] the EC50 was < 50 nM. In the case of `CCN1C(C(=O)Nc2ccc(F)c(Cl)c2)CC(C(=O)NCc2cnc(C)s2)NS1(=O)=O` (single isomer, unassigned) [Compound 888-ISOMER-B, N3-(3-chloro-4-fluoro-phenyl)-2-ethyl-N5-[(2-methylthiazol-5-yl)methyl]-1,1-dioxo-1,2,6-thiadiazinane-3,5-dicarboxamide], the EC50 is reported as < 50 nM. `CCN1C(C(=O)Nc2ccc(F)c(Cl)c2)CC(C(=O)NC2CCN(C(=O)OC)CC2)NS1(=O)=O` (single isomer, unassigned) [Compound 890-ISOMER-B, methyl 4-[[5-[(3-chloro-4-fluoro-phenyl)carbamoyl]-6-ethyl-1,1-dioxo-1,2,6-thiadiazinane-3-carbonyl]amino]piperidine-1-carboxylate] was tested, and the EC50 was 100 to 10000 nM.

Same assay, conditions: Hepatitis B virus, HePAD38, 120 h, 5 days incubation, qPCR of supernatant HBV DNA vs DMSO control, read-out: viral load lowering EC50 (Activity)
`CC(C)OC1CCC(NC(=O)C2CC(C(=O)Nc3ccc(F)c(Cl)c3)N(C)S(=O)(=O)N2)CC1` (single isomer, unassigned) [Compound 862-ISOMER-A, N3-(3-chloro-4-fluoro-phenyl)-N5-(4-isopropoxycyclohexyl)-2-methyl-1,1-dioxo-1,2,6-thiadiazinane-3,5-dicarboxamide] showed an EC50 of 100 to 10000 nM. Work on `CCN1C(C(=O)Nc2ccc(F)c(Cl)c2)CC(C(=O)NCc2cnc(C)s2)NS1(=O)=O` (single isomer, unassigned) [Compound 888-ISOMER-A, N3-(3-chloro-4-fluoro-phenyl)-2-ethyl-N5-[(2-methylthiazol-5-yl)methyl]-1,1-dioxo-1,2,6-thiadiazinane-3,5-dicarboxamide] yielded an EC50 of 100 to 10000 nM. For `CCN1C(C(=O)Nc2ccc(F)c(Cl)c2)CC(C(=O)NC2CCN(C(=O)OC)CC2)NS1(=O)=O` (single isomer, unassigned) [Compound 890-ISOMER-A, methyl 4-[[5-[(3-chloro-4-fluoro-phenyl)carbamoyl]-6-ethyl-1,1-dioxo-1,2,6-thiadiazinane-3-carbonyl]amino]piperidine-1-carboxylate], the EC50 was < 50 nM. `Cc1ncc(CNC(=O)C2CC(C(=O)Nc3ccc(F)c(Cl)c3)N(CC(F)(F)F)S(=O)(=O)N2)s1` (single isomer, unassigned) [Compound 891-ISOMER-A, N3-(3-chloro-4-fluoro-phenyl)-N5-[(2-methylthiazol-5-yl)methyl]-1,1-dioxo-2-(2,2,2-trifluoroethyl)-1,2,6-thiadiazinane-3,5-dicarboxamide] showed an EC50 of 100 to 10000 nM. With `COCCN1C(C(=O)Nc2ccc(F)c(Cl)c2)CC(C(=O)NC2CCN(C(=O)OC)CC2)NS1(=O)=O` (single isomer, unassigned) [Compound 896-ISOMER-A, methyl 4-[[5-[(3-chloro-4-fluoro-phenyl)carbamoyl]-6-(2-methoxyethyl)-1,1-dioxo-1,2,6-thiadiazinane-3-carbonyl]amino]piperidine-1-carboxylate] the EC50 was 50 to 100 nM. `CN1C(C(=O)Nc2ccc(F)c(Cl)c2)CC(C(=O)NCc2ccccc2-n2ccnc2)NS1(=O)=O` (single isomer, unassigned) [Compound 910-ISOMER-B, N3-(3-chloro-4-fluoro-phenyl)-N5-[(2-imidazol-1-ylphenyl)methyl]-2-methyl-1,1-dioxo-1,2,6-thiadiazinane-3,5-dicarboxamide] gave an EC50 of 100 to 10000 nM.
